Common to all, as to format: biochemical
The target of experiment [1] is T1, Arabidopsis thaliana BIO3-BIO1 (BioDA) mutants (Arabidopsis thaliana, UniProt B0F481, A507K).
T1 construct: with the predicted N-terminal mitochondrial transit peptide removed; 6xHis-tag (N); thrombin cleavage site (N); made in house; host or cells: E. coli BL21 (DE3) bioA
Description: BIO3-BIO1 mutant enzyme activity in the presence of herbicide, percentage inhibition (fluorometric DAPA assay). The settings on record: read-out: percentage inhibition. An outline of the steps: (§1)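 His-tagged Arabidopsis BIO3-BIO1 mutants, expressed in E. coli and purified by IMAC and SEC, were preincubated at 50 nM with herbicide for 10 min at 20 °C in EPPS pH 8.6 with pyridoxal phosphate. Reaction with 100 μM spermidine and 20 μM KAPA ran 75 min at 20 °C; DAPA was derivatised with o-phthalaldehyde and read at ex 410/em 470 nm. […].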

Experiment [2] has as its target T2, Arabidopsis thaliana BIO3-BIO1 (BioDA) mutants (Arabidopsis thaliana, UniProt B0F481, A507S).
T2 construct: with the predicted N-terminal mitochondrial transit peptide removed; 6xHis-tag (N); thrombin cleavage site (N); made in house; host or cells: E. coli BL21 (DE3) bioA
Described as above. Conditions: read-out: percentage inhibition. Summed up: as §1

Experiment [3] has as its target T3, Arabidopsis thaliana BIO3-BIO1 (BioDA) mutants (Arabidopsis thaliana, UniProt B0F481, DEL508-508).
T3 construct: with the predicted N-terminal mitochondrial transit peptide removed; 6xHis-tag (N); thrombin cleavage site (N); made in house; host or cells: E. coli BL21 (DE3) bioA
The description is as above. Conditions: read-out: percentage inhibition. An outline of the steps: as §1

Experiment [4] has as its target T4, Arabidopsis thaliana BIO3-BIO1 (BioDA) mutants (Arabidopsis thaliana, UniProt B0F481, Q506A).
T4 construct: with the predicted N-terminal mitochondrial transit peptide removed; 6xHis-tag (N); thrombin cleavage site (N); made in house; host or cells: E. coli BL21 (DE3) bioA
Described as above. Conditions: read-out: percentage inhibition. An outline of the steps:
as §1

For experiment [5], the system named is Cryptosporidium andersoni BioA. As to the kind of experiment: BioA enzyme activity with DMSO or herbicide in vitro. The settings on record: 0.5 μM, spermidine in substrate mix. An excerpt: A pet-24 plasmid containing a DNA sequence encoding each identified variant mutant of BIO3-BIO1 derived from Arabidopsis thaliana from example 5 above, as shown in Table 13 below and as shown in full in SEQ ID NOs: 15 to 155, codon-optimised for expression in E. coli, with an N-terminal 6×His-tag and thrombin cleavage site and under control of a T7 promoter, and was synthesised by Twist Bioscience, in a similar manner to SEQ ID NO:311. These plasmids were then expressed in E. coli BL21 (DE3) bioA with 50 μg/mL kanamycin and 25 μg/mL chloramphenicol selection. Overnight cultures grown at 37° C. were used to inoculate 8×500 mL AIM in shake flasks at a ratio of 1:100. Cultures were grown at 37° C., 200 rpm for 3.5 hours and then overnight at 20° C. Cells were harvested by centrifugation for 30 minutes at 10 000 g. Cells were stored at −80° C. until extraction. 30 g of cell pellet from was thawed in 120 mL of IMAC buffer A (20 mM HEPES pH7.5, 25 mM imidazole, 500 mM sodium chloride, 0.15 mM pyridoxal phosphate, 0.5 mM TCEP, 1× complete Protease Inhibitor Tablet (Roche)). The resuspension was passed through a cell disrupter at 18 000 PSI and centrifuged at 50 000 g for 25 minutes at 4° C. The His-tagged BIO3-BIO1 protein was purified from the extract supernatant on an AKTA avant chromatography system (Cytiva) using a HisTrap FF column and eluted in IMAC buffer B ((20 mM HEPES pH7.5, 500 mM imidazole, 500 mM sodium chloride, 0.15 mM pyridoxal phosphate, 0.5 mM TCEP) followed by SEC using a HiLoad 26/60 Superdex200 column in SEC buffer (25 mM HEPES pH7.5, 150 mM sodium chloride, 0.15 mM pyridoxal phosphate, 0.5 mM TCEP). Protein concentration was measured and calculated using the absorbance at 280 nm. Extracts were diluted 1 in 4 and 10 uL was analysed by SDS PAGE.
To measure BIO3-BIO1 mutant enzyme activity in the presence of herbicide, herbicides were incubated with 20 μL of enzyme mix (100 mM EPPS pH 8.6, 0.1 mM pyridoxal phosphate, 0.1 mg/mL BSA, 50 nM BIO3-BIO1 enzyme) for 10 minutes at 20° C. in a well of a 96-well half-area black plate, followed by the addition of 20 μL of substrate mix (final concentration of 100 mM EPPS pH 8.6, 0.1 mM pyridoxal phosphate, 0.1 mg/mL BSA, 100 μM spermidine, 20 μM KAPA, 100 mM NaCO3) and further incubation for 75 minutes at 20° C. The reaction was terminated by the addition of 50 μL of derivatisation mix (final concentration of 250 mM borate NaOH pH 9.4, 3.6 mM o-phthalaldehyde, 7 mM β-mercaptoethanol, 17% (v/v) ethanol, 3.6% (v/v) methanol). The fluorescent product produced by the reaction of DAPA with o-phthalaldehyde and 7 mM β-mercaptoethanol was measured at 470 nm after excitation at 410 nm. The percentage inhibition was calculated as the activity in the presence of one of three concentrations of each herbicide compound A to M (note that the compounds labelled as A to M are identified hereinabove in the relevant section of the description) as a percentage of the activity in DMSO (Table 12 and 13). The percentage activity versus WT was also calculated and is shown in Table 13 and 14 (NT indicates mutation not tested in table 13, note that these mutations are tested at different compound concentrations for compounds L, M and C, and the results are shown in table 14).
Protein of Escherichia coli BioA (SEQ ID NO:159), Pantoea ananatis BioA (SEQ ID NO:167), Streptomyces viridochromogenes BioA (SEQ ID NO:170), Cryptosporidium andersoni BioA (SEQ ID NO:160), Stenotrophomonas maltophilia BioA (SEQ ID NO:171), Chroococcidiopsis BioA (SEQ ID NO:184), Pedobacter hartonius BioA (SEQ ID NO:181), Chitinophaga filiformis BioA (SEQ ID NO:180), Tenacibaculum adriaticum BioA (SEQ ID NO:185) and Bacillus subtilis BioA (SEQ ID NO:166) was prepared using the method in Example 6. BioA enzyme activity in the presence of herbicide or DMSO in vitro for each of the proteins was assayed according to the enzyme assay method in Example 6, except in some reactions spermidine was replaced with 2 mM S-Adenosyl methionine.

Each structure is given as a SMILES string.

The results in this text go back to patent US20260226493A1, “HERBICIDE RESISTANT PLANTS” (SYNGENTA CROP PROTECTION AG, priority 2023, published 2026).

T1 sequence (B0F481 23-833 A507K): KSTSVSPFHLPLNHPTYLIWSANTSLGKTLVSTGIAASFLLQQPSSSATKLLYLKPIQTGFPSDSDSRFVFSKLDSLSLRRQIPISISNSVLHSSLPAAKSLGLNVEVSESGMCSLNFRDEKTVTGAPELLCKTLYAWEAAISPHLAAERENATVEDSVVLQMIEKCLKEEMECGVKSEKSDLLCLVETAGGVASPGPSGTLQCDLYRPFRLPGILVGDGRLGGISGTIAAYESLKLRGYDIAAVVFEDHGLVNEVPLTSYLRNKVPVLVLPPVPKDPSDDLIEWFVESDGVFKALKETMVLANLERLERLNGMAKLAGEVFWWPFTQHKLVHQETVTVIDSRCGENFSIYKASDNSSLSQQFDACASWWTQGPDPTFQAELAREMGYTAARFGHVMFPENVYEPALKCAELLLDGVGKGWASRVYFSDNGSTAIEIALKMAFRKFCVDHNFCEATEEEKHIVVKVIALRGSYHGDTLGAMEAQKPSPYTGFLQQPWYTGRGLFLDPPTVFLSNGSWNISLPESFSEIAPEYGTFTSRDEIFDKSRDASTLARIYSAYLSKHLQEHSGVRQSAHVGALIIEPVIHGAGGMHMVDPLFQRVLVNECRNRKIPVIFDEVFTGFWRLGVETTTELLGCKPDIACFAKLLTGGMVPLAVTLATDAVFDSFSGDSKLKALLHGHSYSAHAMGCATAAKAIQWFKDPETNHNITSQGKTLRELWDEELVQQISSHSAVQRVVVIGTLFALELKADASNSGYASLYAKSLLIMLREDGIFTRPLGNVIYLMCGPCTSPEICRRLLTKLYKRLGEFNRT
T2 sequence (B0F481 23-833 A507S): as the sequence (B0F481 23-833 A507K) above, with K485S counted along it
T3 sequence (B0F481 other isoform, or with tags, fused parts or gaps DEL508-508): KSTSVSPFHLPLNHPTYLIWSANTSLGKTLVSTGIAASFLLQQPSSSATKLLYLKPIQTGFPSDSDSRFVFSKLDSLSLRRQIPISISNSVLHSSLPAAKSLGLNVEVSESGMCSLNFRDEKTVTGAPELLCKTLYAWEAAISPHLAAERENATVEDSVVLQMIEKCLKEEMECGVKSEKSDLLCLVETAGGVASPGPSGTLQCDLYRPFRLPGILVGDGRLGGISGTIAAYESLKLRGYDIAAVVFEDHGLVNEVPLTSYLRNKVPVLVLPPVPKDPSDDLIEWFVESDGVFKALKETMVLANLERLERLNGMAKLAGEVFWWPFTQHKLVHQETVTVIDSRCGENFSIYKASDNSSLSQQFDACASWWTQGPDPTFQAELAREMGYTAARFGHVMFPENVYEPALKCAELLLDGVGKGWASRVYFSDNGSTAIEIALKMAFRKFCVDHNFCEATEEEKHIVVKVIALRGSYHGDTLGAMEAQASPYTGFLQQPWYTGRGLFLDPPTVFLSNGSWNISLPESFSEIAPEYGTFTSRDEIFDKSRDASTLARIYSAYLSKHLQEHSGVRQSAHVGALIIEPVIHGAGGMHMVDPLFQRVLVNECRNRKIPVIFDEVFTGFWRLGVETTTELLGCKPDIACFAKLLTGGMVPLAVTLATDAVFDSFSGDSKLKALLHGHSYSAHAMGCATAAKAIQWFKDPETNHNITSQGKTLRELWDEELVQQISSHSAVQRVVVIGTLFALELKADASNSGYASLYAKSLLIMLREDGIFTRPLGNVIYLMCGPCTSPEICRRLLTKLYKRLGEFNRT
T4 sequence (B0F481 23-833 Q506A): as the sequence (B0F481 23-833 A507K) above, with Q484A, K485A counted along it

On to `CCOC(=O)c1nn(-c2ccc3c(c2)OC(F)(F)C(F)(F)O3)c2cccc(C(C)=O)c2c1=O` [Compound A, ethyl 5-acetyl-4-oxo-1-(2,2,3,3-tetrafluoro-1,4-benzodioxin-6-yl)cinnoline-3-carboxylate], for which the inhibition at 1 µM came out at 81% in experiment [1], 63% in experiment [2], 22% in experiment [3] and 0% in experiment [4].
For the molecule `CCn1c(Cn2ccc(C(F)(F)F)n2)cc(=O)c(C(=O)O)c1-c1ccc(Cl)c(Cl)c1` [Compound L, 2-(3,4-dichlorophenyl)-1-ethyl-4-oxo-6-[[3-(trifluoromethyl)pyrazol-1-yl]methyl]pyridine-3-carboxylic acid], in experiment [5], the “% Inhibition relative to DMSO treatment” value came to 0%.
